Measured values published in ChEMBL document CHEMBL2216752, “Carnitine palmitoyltransferase (CPT) modulators: a medicinal chemistry perspective on 35 years of research” (J Med Chem, 2011).

How the values were obtained:
Rattus norvegicus [1] = assay: Reduction in KB level in Sprague-Dawley rat at 0.44 mg/kg, po; type: functional; set-up: scale not given: the % may be the effect or the level left
Rattus norvegicus [2] = assay: Reduction in glucose level in Sprague-Dawley rat at 88 mg/kg, po; type: functional; set-up: scale not given: the % may be the effect or the level left
[3] = Inhibition of carnitine palmitoyltransferase in rat heart mitochondria assessed as conversion of [14C]palmitic acid to [14C]palmitoylcarnitine by radiometric assay
[4] = Inhibition of carnitine palmitoyltransferase in rat liver mitochondria assessed as conversion of [14C]palmitic acid to [14C]palmitoylcarnitine by radiometric assay
[5] = Inhibition of carnitine palmitoyltransferase in 18 hr fasted rat hepatocytes; type: cell-based; settings: hepatocyte
[6] = Inhibition of carnitine palmitoyltransferase in 18 hr fasted rat liver homogenates; type: tissue-based
[7] = Competitive inhibition of carnitine palmitoyltransferase using palmitoyl-CoA
[8] = target: T1, Carnitine O-palmitoyltransferase 2, mitochondrial (Homo sapiens, UniProt P23786); assay: Competitive inhibition of CPT2 in liver mitochondria using carnitine
T1 sequence (P23786 whole entry): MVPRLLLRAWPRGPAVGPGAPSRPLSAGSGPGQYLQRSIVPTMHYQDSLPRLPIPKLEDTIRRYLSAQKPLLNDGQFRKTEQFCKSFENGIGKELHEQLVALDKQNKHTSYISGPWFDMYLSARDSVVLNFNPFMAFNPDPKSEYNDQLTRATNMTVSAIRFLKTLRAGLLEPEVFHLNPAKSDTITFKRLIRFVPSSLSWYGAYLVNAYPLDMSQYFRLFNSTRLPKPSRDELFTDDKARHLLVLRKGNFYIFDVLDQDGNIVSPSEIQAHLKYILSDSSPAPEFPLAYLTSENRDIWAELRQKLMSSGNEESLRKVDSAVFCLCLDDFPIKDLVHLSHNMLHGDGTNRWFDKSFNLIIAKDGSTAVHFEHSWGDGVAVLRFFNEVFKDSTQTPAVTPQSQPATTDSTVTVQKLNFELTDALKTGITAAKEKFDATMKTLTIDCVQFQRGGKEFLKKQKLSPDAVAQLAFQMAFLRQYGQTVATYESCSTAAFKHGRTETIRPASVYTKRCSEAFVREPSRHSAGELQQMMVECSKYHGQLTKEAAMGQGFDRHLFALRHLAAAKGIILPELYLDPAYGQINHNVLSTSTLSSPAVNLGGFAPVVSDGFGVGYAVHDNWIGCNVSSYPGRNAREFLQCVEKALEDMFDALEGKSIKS

[9] = target: T1, Carnitine O-palmitoyltransferase 2, mitochondrial; assay: Competitive inhibition of CPT2 in heart mitochondria using carnitine
[10] = target: T1, Carnitine O-palmitoyltransferase 2, mitochondrial; assay: Competitive inhibition of CPT2
Mus musculus [11] = assay: Reduction in glucose level in db/db mouse at 80 mg/kgl/day, po for 12 days; type: functional; set-up: scale not given: the % may be the effect or the level left; settings: dose 80 mg/kg
Cynomolgus monkey = assay: Inhibition of ketogenesis in fasted po dosed cynomolgus monkey; type: functional; settings: Macaca fascicularis
Rattus norvegicus [12] = assay: Reduction in glucose production in Sprague-Dawley rat at 5 to 25 pmol, icv administered as one or two single doses; type: functional; set-up: scale not given: the % may be the effect or the level left
Mus musculus [13] = assay: Reduction in blood glucose level in db/db mouse at 50 mg/kg, po bid for 45 days; type: functional; set-up: scale not given: the % may be the effect or the level left
Mus musculus [14] = assay: Increase in circulating FFA level in db/db mouse at 50 mg/kg, po bid for 45 days; type: functional
Mus musculus [15] = assay: Increase in liver TG level in db/db mouse at 50 mg/kg, po bid for 45 days; type: functional
Mus musculus [16] = assay: Reduction in water consumption in db/db mouse at 50 mg/kg, po bid for 45 days; type: functional; set-up: scale not given: the % may be the effect or the level left
Mus musculus [17] = assay: Reduction in serum fructosamine level in db/db mouse at 50 mg/kg, po bid for 45 days; type: functional; set-up: scale not given: the % may be the effect or the level left
Mus musculus [18] = assay: Reduction in liver glycogen level in db/db mouse at 50 mg/kg, po bid for 45 days; type: functional; set-up: scale not given: the % may be the effect or the level left
Mus musculus [19] = assay: Reduction in serum glucose in db/db mouse at 50 mg/kg, po bid for 45 days; type: functional; set-up: scale not given: the % may be the effect or the level left
[20] = Inhibition of rat FAO
[21] = Inhibition of human FAO
[22] = target: T1, Carnitine O-palmitoyltransferase 2, mitochondrial; assay: Inhibition of human CPT2
Homo sapiens [23] = assay: Reduction in fasting insulin in NIDD patient at 450 mg/day, po for 15 days; type: functional; set-up: scale not given: the % may be the effect or the level left
Homo sapiens [24] = assay: Reduction in HOMA index in NIDD patient at 450 mg/day, po for 15 days; type: functional; set-up: scale not given: the % may be the effect or the level left
[25] = Half life in NIDD patient at 150 to 450 mg/day, po for 15 days; type: ADME, organism-based; settings: human, in vivo
[26] = target: T2, Carnitine O-palmitoyltransferase 2, mitochondrial (Rattus norvegicus, UniProt P18886); assay: Inhibition of rat CPT2
T2 sequence (P18886 whole entry): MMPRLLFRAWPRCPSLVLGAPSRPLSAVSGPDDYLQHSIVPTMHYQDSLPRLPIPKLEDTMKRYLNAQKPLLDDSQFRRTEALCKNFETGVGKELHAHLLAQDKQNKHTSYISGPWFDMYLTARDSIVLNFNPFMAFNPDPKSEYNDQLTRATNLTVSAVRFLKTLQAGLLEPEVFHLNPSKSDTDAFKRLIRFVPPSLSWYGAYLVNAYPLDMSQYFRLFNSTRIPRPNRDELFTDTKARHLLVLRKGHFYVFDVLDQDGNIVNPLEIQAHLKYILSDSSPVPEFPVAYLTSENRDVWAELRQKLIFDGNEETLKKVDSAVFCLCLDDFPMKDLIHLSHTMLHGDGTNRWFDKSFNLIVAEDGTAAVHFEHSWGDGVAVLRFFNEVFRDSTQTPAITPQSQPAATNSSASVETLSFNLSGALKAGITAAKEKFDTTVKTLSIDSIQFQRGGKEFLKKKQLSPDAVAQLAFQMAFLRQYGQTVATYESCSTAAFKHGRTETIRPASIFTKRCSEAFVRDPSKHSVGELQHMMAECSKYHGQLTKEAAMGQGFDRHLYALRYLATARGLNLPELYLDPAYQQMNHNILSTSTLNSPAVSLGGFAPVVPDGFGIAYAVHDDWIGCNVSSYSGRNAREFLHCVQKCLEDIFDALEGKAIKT

[27] = Critical micelle concentration of compound; type: physicochemical
[28] = target: T3, Carnitine O-palmitoyltransferase 1, muscle isoform (Homo sapiens, UniProt Q92523); assay: Inhibition of human CPT1B
T3 sequence (Q92523 whole entry): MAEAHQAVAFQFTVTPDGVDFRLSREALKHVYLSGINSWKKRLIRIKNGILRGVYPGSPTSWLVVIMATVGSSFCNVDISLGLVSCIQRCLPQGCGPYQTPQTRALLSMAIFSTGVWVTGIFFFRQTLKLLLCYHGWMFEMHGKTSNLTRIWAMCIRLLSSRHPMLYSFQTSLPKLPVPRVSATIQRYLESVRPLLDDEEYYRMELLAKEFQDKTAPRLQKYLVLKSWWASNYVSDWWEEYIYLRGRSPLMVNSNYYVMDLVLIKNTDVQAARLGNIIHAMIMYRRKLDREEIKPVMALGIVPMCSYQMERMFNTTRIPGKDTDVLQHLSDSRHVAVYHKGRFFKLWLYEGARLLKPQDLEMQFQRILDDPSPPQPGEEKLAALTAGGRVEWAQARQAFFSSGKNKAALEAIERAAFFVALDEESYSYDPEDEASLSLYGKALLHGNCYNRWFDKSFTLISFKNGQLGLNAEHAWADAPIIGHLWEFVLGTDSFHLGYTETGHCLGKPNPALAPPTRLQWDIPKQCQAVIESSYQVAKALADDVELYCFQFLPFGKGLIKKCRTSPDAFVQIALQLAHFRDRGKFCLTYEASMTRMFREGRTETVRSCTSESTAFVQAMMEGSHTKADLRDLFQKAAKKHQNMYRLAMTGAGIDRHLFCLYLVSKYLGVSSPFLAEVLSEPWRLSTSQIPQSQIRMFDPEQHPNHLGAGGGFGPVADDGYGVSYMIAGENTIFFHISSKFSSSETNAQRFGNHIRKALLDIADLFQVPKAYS

[29] = target: T4, Carnitine O-palmitoyltransferase 1, liver isoform (Homo sapiens, UniProt P50416); assay: Inhibition of human CPT1A
T4 sequence (P50416 whole entry): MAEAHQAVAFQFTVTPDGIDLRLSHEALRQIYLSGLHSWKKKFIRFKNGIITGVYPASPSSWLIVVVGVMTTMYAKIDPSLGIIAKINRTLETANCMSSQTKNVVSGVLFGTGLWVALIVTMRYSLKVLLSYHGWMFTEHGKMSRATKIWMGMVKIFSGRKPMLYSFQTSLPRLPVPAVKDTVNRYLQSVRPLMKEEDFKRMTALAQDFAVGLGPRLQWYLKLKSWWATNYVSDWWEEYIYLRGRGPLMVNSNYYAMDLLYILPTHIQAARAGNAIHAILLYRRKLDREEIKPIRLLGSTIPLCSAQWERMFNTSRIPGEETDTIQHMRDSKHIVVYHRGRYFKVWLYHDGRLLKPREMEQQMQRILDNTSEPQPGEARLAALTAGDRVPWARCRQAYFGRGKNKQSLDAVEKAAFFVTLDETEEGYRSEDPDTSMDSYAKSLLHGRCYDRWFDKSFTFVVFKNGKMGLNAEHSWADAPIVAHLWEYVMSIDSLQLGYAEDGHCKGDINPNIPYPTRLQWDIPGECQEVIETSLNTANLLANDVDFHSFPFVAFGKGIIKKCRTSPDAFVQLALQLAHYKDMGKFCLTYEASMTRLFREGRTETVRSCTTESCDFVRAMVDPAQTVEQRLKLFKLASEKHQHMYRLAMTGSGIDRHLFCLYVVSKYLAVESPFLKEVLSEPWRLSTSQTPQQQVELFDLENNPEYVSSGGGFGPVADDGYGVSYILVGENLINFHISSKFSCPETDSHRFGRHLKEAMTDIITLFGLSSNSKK

[30] = Inhibition of FAO in hepatocytes; type: cell-based; settings: hepatocyte
Mus musculus [31] = assay: Induction of weight loss in DIO mouse at 15 mg/kg, ip administered single dose measured 20 hrs post dose (reference value: 2 %); type: functional; settings: route intraperitoneal
Mus musculus [32] = assay: Increase in energy production in DIO mouse at 15 mg/kg, ip administered single dose; type: functional; settings: route intraperitoneal
[33] = target: Carnitine O-palmitoyltransferase 1, liver isoform (Rattus norvegicus) (UniProt P32198); assay: Increase in CPT1 activity in rat hepatocytes using [3H]carnitine by radiometric assay; type: cell-based; settings: Hepatocyte
Hepatocyte = assay: Increase in palmitate oxidation rat hepatocytes a at 80 uM; type: functional
[34] = target: T5, Carnitine O-palmitoyltransferase 1, liver isoform (Homo sapiens) (UniProt P50416); assay: Increase in liver CPT1 activity expressed in yeast mitochondrial extracts
T5 sequence (whole entry): T4 sequence (P50416 whole entry)

[35] = target: Carnitine O-palmitoyltransferase 1, muscle isoform (Homo sapiens) (UniProt Q92523); assay: Increase in muscle CPT1 activity expressed in yeast mitochondrial extracts; settings: Muscle tissue

Sequence of Carnitine O-palmitoyltransferase 1, liver isoform (Rattus norvegicus) (P32198 whole entry, canonical isoform): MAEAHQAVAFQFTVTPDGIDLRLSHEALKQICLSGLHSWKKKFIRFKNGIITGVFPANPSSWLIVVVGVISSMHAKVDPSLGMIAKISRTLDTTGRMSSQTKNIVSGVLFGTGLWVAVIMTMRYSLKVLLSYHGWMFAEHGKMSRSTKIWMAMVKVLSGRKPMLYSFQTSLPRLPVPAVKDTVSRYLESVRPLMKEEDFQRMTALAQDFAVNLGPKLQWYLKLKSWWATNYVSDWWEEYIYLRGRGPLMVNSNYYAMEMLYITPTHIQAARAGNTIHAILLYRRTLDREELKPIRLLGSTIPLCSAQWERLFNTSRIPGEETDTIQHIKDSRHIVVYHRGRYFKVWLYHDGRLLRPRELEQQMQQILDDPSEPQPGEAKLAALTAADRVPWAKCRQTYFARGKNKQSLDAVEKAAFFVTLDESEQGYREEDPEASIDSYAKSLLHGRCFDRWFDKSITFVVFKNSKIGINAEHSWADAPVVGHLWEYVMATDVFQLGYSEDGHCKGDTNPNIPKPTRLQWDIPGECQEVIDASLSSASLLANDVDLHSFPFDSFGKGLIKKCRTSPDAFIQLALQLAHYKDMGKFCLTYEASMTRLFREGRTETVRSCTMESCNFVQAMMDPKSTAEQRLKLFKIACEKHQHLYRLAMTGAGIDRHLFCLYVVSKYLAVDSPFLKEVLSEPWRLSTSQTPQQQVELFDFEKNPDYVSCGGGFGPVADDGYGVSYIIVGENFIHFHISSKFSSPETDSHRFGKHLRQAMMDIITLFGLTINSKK

CCCCCCCCCCCCCCOP(=O)([O-])O[C@H](CC(=O)O)C[N+](C)(C)C
Activity (Rattus norvegicus [1]): 77%
Activity (Rattus norvegicus [2]): 20%
IC50 [3]: 62 µM
IC50 [4]: 17.4 µM
IC50 [5]: 3 µM
IC50 [6]: 36 µM
Ki [7]: 3.6 µM

CCCCCCCCCCCCCCC[C@@]1(O)C[N+](C)(C)C[C@@H](CC(=O)[O-])O1 (racemic)
Ki [8]: 4.2 µM
Ki [9]: 2.8 µM
Ki [10]: 0.16 µM

CCCCCCCCCCCCCCNC(=O)N[C@H](CC(=O)[O-])C[N+](C)(C)C
Activity (Mus musculus [11]): 26%
ED50 (Cynomolgus monkey): 0.5 mg/kg
Activity (Rattus norvegicus [12]): 45%
Activity (Mus musculus [13]): 39%
Activity (Mus musculus [14]): 20%
Activity (Mus musculus [15]): 38%
Activity (Mus musculus [16]): 30%
Activity (Mus musculus [17]): 30%
Activity (Mus musculus [18]): 25%
Activity (Mus musculus [19]): 25%
IC50 [3]: 43.4 µM
IC50 [4]: 1.1 µM
IC50 [20]: 0.98 µM
IC50 [21]: 4 µM
IC50 [22]: 0.16 µM
Activity (Homo sapiens [23]): 12%
Activity (Homo sapiens [24]): 25%
half-life [25]: 25 h
IC50 [26]: 0.38 µM
CMC [27]: 29 µM
Ki [7]: 0.36 µM
IC50 [28]: 5.4 µM
IC50 [29]: 1.05 µM

CCCCCCOc1cccc(OCCCCCC(=O)NC2(CC(=O)[O-])CC[N+](C)(C)CC2)c1
IC50 [30]: 19 µM

C=C1C(=O)O[C@H](CCCCCCCC)[C@H]1C(=O)O
IC50 [20]: > 100 µM
IC50 [21]: 21.9 µM
Activity (Mus musculus [31]): 4.4%
Activity (Mus musculus [32]): 32.9%
Activity [33]: 250%
Activity (Hepatocyte): 750%
Activity [34]: 20%
Activity [35]: 20%
